This is an account of results in patent US20110145975A1, “P0WDER-FREE GLOVE WITH STABLE AND FAST ACTING MICROBIAL COATING” (ANSELL LIMITED, priority 2009, published 2011).

The data set is classed as physicochemical. An excerpt: Several cationic antimicrobial agents are available for incorporation into the antimicrobial coating. The resistances of these cationic antimicrobial agents to degradation vary due to differences in their chemical structure, molecular weight, and species of anions and anionic surfactants that tend to degrade the long lifetime of the antimicrobial coating. […] Mixtures of antimicrobial agents can be used, for example to expand the range of bacteria against which the coating is effective.

Regarding poly(hexamethylene biguanide) chloride, the resistance to degradation result is “more resistant to degradation than CHG”.
